The test system of data set [1] is MKN-28. The data set is described as follows: Cytotoxicity against human MKN-28 cells assessed as reduction in cell viability at 12.5 to 25 uM incubated for 24 hrs by MTT assay. The format is functional, cell-based. The following applies: dose 12.5-25 µM.
Data set [2] can be described thus: Cytotoxicity against HDF cells assessed as reduction in cell viability at 12.5 to 25 uM incubated for 24 hrs by MTT assay. It is filed as toxicity, cell-based. The following applies: human, dose 12.5-25 µM.
The test system of data set [3] is MKN-28. As to the kind of experiment: Antiproliferative activity against human MKN-28 cells assessed as inhibition of cell growth incubated for 2 days by SRB assay. It is filed as functional, cell-based. Particulars: MKN-28, 48 h.
The test system of the next data set is Huh-7. The data set is described as follows: Antiproliferative activity against human Huh-7 cells assessed as inhibition of cell growth incubated for 24 hrs by Alamar blue assay. The format is functional, cell-based. The following applies: Huh-7, 24 h.
A further data set has as its system HepG2. As to the kind of experiment: Antiproliferative activity against human HepG2 cells assessed as inhibition of cell growth incubated for 24 hrs by Alamar blue assay. It is filed as functional, cell-based. Particulars: HepG2, 24 h.
The test system of data set [4] is MKN-28. As to the kind of experiment: Cytotoxicity against human MKN-28 cells assessed as reduction in cell viability at 12.5 to 50 uM incubated for 24 hrs by MTT assay. It is filed as functional, cell-based. Particulars: dose 12.5-50 µM.
The nature of data set [5]: Cytotoxicity against HDF cells assessed as reduction in cell viability at 12.5 to 50 uM incubated for 24 hrs by MTT assay. Particulars: human, dose 12.5-50 µM. The format is toxicity, cell-based.
Data set [6] concerns MKN-28. The data set is described as follows: Antiproliferative activity against human MKN-28 cells assessed as inhibition of cell growth incubated for 24 hrs by MTT assay. It is filed as functional, cell-based. Particulars: MKN-28, 24 h.
Data set [7] is described as follows: Cytotoxicity against HDF cells assessed as inhibition of cell growth incubated for 24 hrs by MTT assay. It is filed as toxicity, cell-based. The following applies: human.
Data set [8] can be described thus: Selectivity index, ratio of IC50 for cytotoxicity against HDF cells to IC50 for antiproliferative activity against human MKN-28 cells. The format is toxicity, cell-based. The following applies: HDF cells versus MKN-28 cells, read-out: Ratio IC50.
Data set [9] is described as follows: Selectivity index, ratio of IC50 for cytotoxicity against HDF cells to IC50 for antiproliferative activity against human Huh-7 cells. It is filed as toxicity, cell-based. Particulars: HDF cells versus Huh-7 cells, read-out: Ratio IC50.
Data set [10] in a line: Selectivity index, ratio of IC50 for cytotoxicity against HDF cells to IC50 for antiproliferative activity against human HepG2 cells. The format is toxicity, cell-based. Particulars: HDF cells versus HepG2 cells, read-out: Ratio IC50.

The source made the active and inactive calls. No cut-off for these calls is given here.

On to `CNc1ccc(/C=C/C(=O)NCCCCNc2cc(OC)cc3cc4ccc(Cl)cc4nc23)cc1`, for which the result in the data set with MKN-28 [1] was inactive. For the same compound, the Activity entry in data set [2] was “Non-Toxic”.

In the case of `COc1cccc2c1C(=O)c1c(O)c3c(c(O)c1C2=O)C[C@@](O)(C(=O)CO)C[C@@H]3O[C@H]1C[C@H](N)[C@H](O)[C@H](C)O1` [DOXORUBICIN], the IC50 in the data set on MKN-28 [3] is 0.34 µM; with Huh-7, 6.05 µM; in the data set with HepG2, 0.425 µM.

For the compound `CCN(CC)CCCNc1c2ccc(Cl)cc2nc2c(NCCCCNC(=O)/C=C/c3ccccc3)cc(OC)cc12`, the outcome in the data set with MKN-28 [4] was Active. In addition, the Activity result in data set [5] is given as “Non-Toxic”. In addition, the IC50 was found to be 15.4 µM with MKN-28 [6], 12.1 µM in the data set on Huh-7 and 4.11 µM with HepG2. The IC50 at 24 h in data set [7] was over 50 µM. Further, the selectivity ratio in data set [8] is over 3.2; in [9], over 4.1; in data set [10] it was over 12.2.

Regarding `COc1cc(NCCCCNC(=O)/C=C/c2ccc(C(C)C)cc2)c2nc3cc(Cl)ccc3cc2c1`, the outcome in the data set on MKN-28 [1] was inactive. Also, in data set [2], the Activity entry is “Non-Toxic”.

`COc1cc(NCCCCNC(=O)/C=C/c2ccc(C)cc2)c2nc3cc(Cl)ccc3cc2c1`: the outcome in the data set with MKN-28 [1] was inactive. The Activity entry in [2] is on record as “Non-Toxic”.

`CCN(CC)CCCC(C)Nc1c2ccc(Cl)cc2nc2c(NCCCCNC(=O)/C=C/c3cccc(F)c3)cc(OC)cc12` (stereo not drawn): the result in the data set with MKN-28 [4] was Active. In addition, the Activity entry in data set [5] is “Non-Toxic”. Also, the results for the IC50 in the data set with MKN-28 [6], in the data set on Huh-7 and with HepG2 were 12.7 µM, 12.9 µM and 5.06 µM, respectively. Further, in data set [7], the IC50 at 24 h is over 50 µM. Also, the selectivity ratio was over 3.9 in data set [8], over 3.9 in [9] and over 9.9 in data set [10].

Take `CCN(CC)CCCC(C)Nc1c2ccc(Cl)cc2nc2c(NCCCCNC(=O)/C=C/c3ccc(OC)cc3)cc(OC)cc12` (stereo not drawn): in the data set with MKN-28 [4], the result was Active. Further, the Activity entry in data set [5] is reported as “Non-Toxic”. Moreover, the IC50 was found to be 13.7 µM in the data set on MKN-28 [6], 12.1 µM in the data set on Huh-7 and 3.33 µM in the data set with HepG2. The IC50 at 24 h in [7] is over 50 µM. Moreover, the selectivity ratio in data set [8] was over 3.6; in [9] it was over 4.1; in [10], over 15.

In the case of `COc1cc(NCCCCNC(=O)/C=C/c2cccc(Br)c2)c2nc3cc(Cl)ccc3cc2c1`, in the data set with MKN-28 [1], the outcome was inactive. Besides, the Activity entry in data set [2] was “Non-Toxic”.

With `COc1cc(NCCCCNC(=O)/C=C/c2ccccc2)c2nc3cc(Cl)ccc3cc2c1`, the result in the data set on MKN-28 [1] was inactive. Also, the Activity entry in data set [2] is recorded as “Non-Toxic”.

Regarding `CCN(CC)CCCC(C)Nc1c2ccc(Cl)cc2nc2c(NCCCCNC(=O)/C=C/c3ccc(F)cc3)cc(OC)cc12` (stereo not drawn), the result in the data set on MKN-28 [4] was Active. Moreover, in data set [5], the Activity result is “Non-Toxic”. The IC50 in the data set on MKN-28 [6] amounted to 12.5 µM; with Huh-7, 12.4 µM; with HepG2 it was 7.64 µM. Besides, the IC50 at 24 h in data set [7] is over 50 µM. Besides, the values for the selectivity ratio in data set [8], in [9] and in data set [10] were over 4, over 4 and over 6.5, respectively.

As for `CCN(CC)CCCNc1c2ccc(Cl)cc2nc2c(NCCCCNC(=O)/C=C/c3cccc(F)c3)cc(OC)cc12`, the result in the data set with MKN-28 [4] was Active. The Activity entry in [5] was “Non-Toxic”. The IC50 in the data set with MKN-28 [6] was 13 µM; in the data set on Huh-7 it was 11.5 µM; with HepG2, 5.21 µM. In data set [7], the IC50 at 24 h is over 50 µM. Also, the selectivity ratio in data set [8] is over 3.8; in data set [9], over 4.3; in [10] it was over 9.6.

On to `COc1cc(NCCCCNC(=O)/C=C/c2cccc(F)c2)c2nc3cc(Cl)ccc3cc2c1`, for which the result in the data set with MKN-28 [1] was inactive. Besides, in [2], the Activity entry is “Non-Toxic”.

For the compound `CCN(CC)CCCC(C)Nc1c2ccc(Cl)cc2nc2c(NCCCCNC(=O)/C=C/c3ccccc3)cc(OC)cc12` (stereo not drawn), the result with MKN-28 [4] was Active. Also, in data set [5], the Activity result was “Non-Toxic”. The IC50 in the data set with MKN-28 [6] amounted to 10 µM; in the data set with Huh-7, 7.26 µM; with HepG2, 4.17 µM. For the same compound, the IC50 at 24 h in data set [7] is over 50 µM. For the same compound, the selectivity ratio in data set [8] was over 5; in data set [9], over 6.9; in data set [10], over 12.

Regarding `COc1cc(NCCCCNC(=O)/C=C/c2ccc(F)cc2)c2nc3cc(Cl)ccc3cc2c1`, the outcome in the data set with MKN-28 [1] was inactive. For the same compound, in data set [2], the Activity entry is given as “Non-Toxic”.

As for `CCN(CC)CCCNc1c2ccc(Cl)cc2nc2c(NCCCCNC(=O)/C=C/c3ccc(F)cc3)cc(OC)cc12`, in the data set with MKN-28 [4], the outcome was Active. In addition, the Activity result in data set [5] is given as “Non-Toxic”. The IC50 amounted to 12.2 µM with MKN-28 [6], 11.2 µM in the data set with Huh-7 and 6.32 µM with HepG2. Besides, in data set [7], the IC50 at 24 h is over 50 µM. In addition, the values for the selectivity ratio in data set [8], in [9] and in data set [10] were over 4.1, over 4.5 and over 7.9, respectively.

In the case of `COc1cc(NCCCCNC(=O)/C=C/c2ccc([N+](=O)[O-])cc2)c2nc3cc(Cl)ccc3cc2c1`, in the data set with MKN-28 [1], the result was inactive. The Activity result in data set [2] was “Non-Toxic”.

In the case of `COc1cc(NCCCCNC(=O)/C=C/c2ccc(C(F)(F)F)cc2)c2nc3cc(Cl)ccc3cc2c1`, the outcome in the data set on MKN-28 [1] was inactive. The Activity result in [2] is “Non-Toxic”.

As for `CCN(CC)CCCNc1c2ccc(Cl)cc2nc2c(NCCCCNC(=O)/C=C/c3ccc(OC)cc3)cc(OC)cc12`, the outcome in the data set on MKN-28 [4] was Active. For the same compound, the Activity result in [5] is on record as “Non-Toxic”. The values for the IC50 in the data set on MKN-28 [6], in the data set with Huh-7 and in the data set on HepG2 were 15.5 µM, 12.4 µM and 5.38 µM, respectively. In addition, the IC50 at 24 h in data set [7] was over 50 µM. The selectivity ratio was over 3.2 in data set [8], over 4 in [9] and over 9.3 in data set [10].

With `CCN(CC)CCCC(C)Nc1c2ccc(Cl)cc2nc2ccc(OC)cc12` (stereo not drawn) [QUINACRINE], the results for the IC50 in the data set on MKN-28 [3], in the data set on Huh-7 and with HepG2 were 2.46 µM, 8.7 µM and 4.48 µM, respectively.

For `COc1cc(NCCCCNC(=O)/C=C/c2ccc(OC)c(OC)c2)c2nc3cc(Cl)ccc3cc2c1`, the result in the data set on MKN-28 [1] was inactive. In addition, the Activity entry in data set [2] was “Non-Toxic”.

The record behind these values is ChEMBL document CHEMBL6127014, “Repurposing antiplasmodial leads for cancer: Exploring the antiproliferative effects of N-cinnamoyl-aminoacridines” (Bioorg Med Chem Lett, 2024).
